Experimental data from US8959984B2, “Proteome-wide quantification of small molecule binding to cellular target proteins” (priority 2007, dated 2015).
pKi: −log10 of the molar value.

Tests used:
Experiment in all cases: binding to AX14596 beads (HeLa lysate, SILAC MS)
[1] = biological target: RIPK2 (Homo sapiens, UniProt O43353)
Protocol: (§1) Differentially SILAC-encoded cell lysates were either incubated with the inhibitor beads displaying immobilized AX14596 or control resin devoid of ligand. In parallel, the supernatant from the first binding step was subjected to a second incubation with the AX14596 resin (FIG. 4). The resulting three elution fractions were combined, resolved by gel electrophoresis, proteolytically digested and the relative abundance of the retained proteins quantified. Proteins showing considerable binding to the control resin were identified as non-specific interactors and therefore not considered further. […] These target-specific ratios were similar in “label switch” experiments (FIGS. 6a and 6c). The binding equilibrium was determined in parallel control SILAC experiments as well as the excess of the immobilized compound over its cellular targets, the excess preferably being a molar excess (FIG. 7 and FIG. 8).
(§2) Cysteine carbamidomethylation was set as a fixed modification and N-acetyl protein and oxidized methionine were allowed as variable modifications. Spectra that were determined to result from heavy labeled peptides in the pre-search detection of SILAC partners by MaxQuant were searched with the fixed modifications Lys^4, Lys^8, Arg^6 and Arg^10, whereas MS/MS spectra for which no SILAC state could be assigned before database searching were searched with Lys^4, Lys^8, Arg^6 and Arg^10 as variable modifications. The mass tolerance was set to 5 ppm for monoisotopic precursor ions and to 0.5 Da for MS/MS peaks. The minimum peptide length was set to 6 amino acids and up to three missed cleavages and three isotopically labeled amino acids were permitted per peptide. The accepted false discovery rate (FDR) was 1% for the proteins and peptides. The cut-off for the posterior error probability (PEP) of peptides was set to 10%. Peptide PEPs were determined by generating Mascot score and peptide-length-dependent histograms for both the forward and the reverse hits and then deriving the probability of a false identification for a given top-scoring peptide using Bayes' theorem. The PEPs of peptides belonging to the same proteins were then multiplied. Each peptide sequence was considered only once with the lowest PEP determined in case of multiple sequencing of the same isotopic pattern or of peptide species with different SILAC, charge or modification states. Proteins were then sorted according to their products of their peptide PEPs and included until a FDR of 1% was reached according to the fraction of reverse proteins contained in the protein list. In addition to the FDR threshold applied for protein identification, proteins were only included when they were identified with at least two peptides (of which one was required to be unique for the protein) and quantified if at least on quantifiable SILAC pair was associated with them. Outliers were not removed as protein ratios were calculated as the median instead of the average of all peptide ratios. For peptides shared among different identified proteins, SILAC ratios were only considered for the ratio of the protein identified with the highest number of unique peptides. Protein ratios for the different in vitro association experiments were corrected for the initial SILAC pooling ratio, which was determined from the median of protein ratios in pooled SILAC-encoded cell extracts.

[2] = biological target: PKD2 (PRKD2) (Homo sapiens, UniProt Q9BZL6)
Protocol: as §1, §2

[3] = biological target: IGF2BP1 (Homo sapiens, UniProt Q9NZI8)
Protocol: as §1, §2

[4] = biological target: T1, SgK085 (MYLK3) (Homo sapiens, UniProt Q32MK0)
T1 sequence (Q32MK0 1-819): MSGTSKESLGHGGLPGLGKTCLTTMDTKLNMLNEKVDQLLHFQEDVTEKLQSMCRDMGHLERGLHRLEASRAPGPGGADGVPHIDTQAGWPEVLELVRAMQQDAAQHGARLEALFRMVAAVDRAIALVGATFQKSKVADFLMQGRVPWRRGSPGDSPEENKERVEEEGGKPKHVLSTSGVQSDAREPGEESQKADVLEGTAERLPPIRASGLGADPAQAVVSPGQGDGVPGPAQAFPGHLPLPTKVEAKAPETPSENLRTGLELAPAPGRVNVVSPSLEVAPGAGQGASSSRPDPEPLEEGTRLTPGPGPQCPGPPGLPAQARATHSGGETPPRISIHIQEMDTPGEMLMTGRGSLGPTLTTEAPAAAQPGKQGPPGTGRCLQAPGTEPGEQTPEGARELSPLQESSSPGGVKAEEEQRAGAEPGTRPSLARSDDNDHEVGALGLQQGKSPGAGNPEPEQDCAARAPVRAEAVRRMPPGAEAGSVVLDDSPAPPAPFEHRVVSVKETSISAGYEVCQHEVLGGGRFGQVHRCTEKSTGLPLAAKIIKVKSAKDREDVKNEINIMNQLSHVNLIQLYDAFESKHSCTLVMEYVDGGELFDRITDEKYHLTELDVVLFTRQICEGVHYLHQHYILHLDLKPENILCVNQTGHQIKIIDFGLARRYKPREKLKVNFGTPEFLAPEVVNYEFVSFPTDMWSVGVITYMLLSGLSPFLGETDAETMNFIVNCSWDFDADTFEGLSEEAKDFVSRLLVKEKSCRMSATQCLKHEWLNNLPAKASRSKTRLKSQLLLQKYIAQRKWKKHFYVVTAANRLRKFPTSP
Protocol: as §1, §2

IGF2BP1, sequence (Q9NZI8 whole entry): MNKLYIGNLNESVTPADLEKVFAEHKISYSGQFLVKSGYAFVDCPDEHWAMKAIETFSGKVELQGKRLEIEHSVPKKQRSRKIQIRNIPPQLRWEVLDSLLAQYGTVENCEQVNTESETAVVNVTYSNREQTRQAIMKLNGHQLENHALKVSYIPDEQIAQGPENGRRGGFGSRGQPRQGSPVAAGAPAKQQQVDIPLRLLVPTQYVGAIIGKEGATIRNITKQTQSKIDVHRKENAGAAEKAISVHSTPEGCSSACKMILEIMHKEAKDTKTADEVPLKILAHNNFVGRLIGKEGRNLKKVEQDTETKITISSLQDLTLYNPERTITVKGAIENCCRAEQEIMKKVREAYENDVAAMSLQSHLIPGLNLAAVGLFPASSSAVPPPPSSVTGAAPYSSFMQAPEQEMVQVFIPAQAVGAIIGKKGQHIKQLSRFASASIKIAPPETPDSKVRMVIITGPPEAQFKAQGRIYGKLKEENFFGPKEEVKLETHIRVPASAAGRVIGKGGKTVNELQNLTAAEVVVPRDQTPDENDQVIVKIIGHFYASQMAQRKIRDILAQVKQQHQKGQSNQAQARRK
RIPK2, sequence (O43353 whole entry): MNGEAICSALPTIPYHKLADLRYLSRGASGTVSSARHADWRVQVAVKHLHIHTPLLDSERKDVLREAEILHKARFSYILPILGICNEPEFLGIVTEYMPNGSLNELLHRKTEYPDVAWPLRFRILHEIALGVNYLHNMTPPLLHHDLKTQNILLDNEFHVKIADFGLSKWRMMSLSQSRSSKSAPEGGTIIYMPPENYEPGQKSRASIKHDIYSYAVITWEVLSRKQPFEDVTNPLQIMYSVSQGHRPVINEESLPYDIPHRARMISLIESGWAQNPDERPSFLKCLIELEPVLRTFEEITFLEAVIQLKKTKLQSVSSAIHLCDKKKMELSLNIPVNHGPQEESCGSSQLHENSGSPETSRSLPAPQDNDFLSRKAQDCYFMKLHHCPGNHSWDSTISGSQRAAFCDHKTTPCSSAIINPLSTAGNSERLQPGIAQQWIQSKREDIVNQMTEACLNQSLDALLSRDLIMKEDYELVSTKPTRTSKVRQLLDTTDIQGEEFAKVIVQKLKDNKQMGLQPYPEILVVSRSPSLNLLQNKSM
PKD2 (PRKD2), sequence (Q9BZL6 whole entry): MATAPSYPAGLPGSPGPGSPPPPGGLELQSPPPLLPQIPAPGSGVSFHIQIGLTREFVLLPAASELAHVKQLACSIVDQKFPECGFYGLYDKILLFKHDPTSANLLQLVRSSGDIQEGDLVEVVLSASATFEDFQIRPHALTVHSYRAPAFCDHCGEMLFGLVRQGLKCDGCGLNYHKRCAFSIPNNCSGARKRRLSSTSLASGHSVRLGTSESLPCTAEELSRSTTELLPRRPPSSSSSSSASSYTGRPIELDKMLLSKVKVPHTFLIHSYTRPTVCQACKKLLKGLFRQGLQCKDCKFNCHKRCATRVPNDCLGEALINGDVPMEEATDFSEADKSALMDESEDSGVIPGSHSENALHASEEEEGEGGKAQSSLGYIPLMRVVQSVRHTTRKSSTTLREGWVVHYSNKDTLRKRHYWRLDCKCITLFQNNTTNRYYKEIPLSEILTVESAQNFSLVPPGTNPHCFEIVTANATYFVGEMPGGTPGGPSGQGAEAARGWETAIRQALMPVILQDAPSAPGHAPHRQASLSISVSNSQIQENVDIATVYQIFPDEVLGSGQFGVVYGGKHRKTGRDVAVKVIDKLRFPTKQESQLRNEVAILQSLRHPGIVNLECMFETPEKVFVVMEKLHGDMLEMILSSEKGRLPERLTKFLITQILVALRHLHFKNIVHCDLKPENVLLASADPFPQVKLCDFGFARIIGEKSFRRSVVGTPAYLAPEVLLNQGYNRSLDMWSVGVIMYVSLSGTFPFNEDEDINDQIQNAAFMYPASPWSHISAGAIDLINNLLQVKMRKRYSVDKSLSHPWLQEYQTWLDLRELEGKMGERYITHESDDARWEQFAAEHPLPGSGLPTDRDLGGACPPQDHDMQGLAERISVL

COc1cc2ncnc(Nc3ccc(F)c(Cl)c3)c2cc1OCCCN [AX14596]
pKi [1]: 5.21 | r (3 mg/1 mg lysate) [1]: 2.68 | r (5 h/2.5 h inc. time) [1]: 0.90 | rAVERAGE (2. inc/1. inc) [1]: 0.06 | rAVERAGE (control/1. inc) [1]: 0.02 | % BOUND ([1]; bound to AX14596 beads): 94% | pKi [2]: 3.41 | r (3 mg/1 mg lysate) [2]: 2.53 | r (5 h/2.5 h inc. time) [2]: 0.96 | rAVERAGE (2. inc/1. inc) [2]: 0.79 | rAVERAGE (control/1. inc) [2]: 0.08 | pKi [3]: 3.44 | rAVERAGE (2. inc/1. inc) [3]: 0.79 | rAVERAGE (control/1. inc) [3]: 0.19 | pKi [4]: 3.73 | r (3 mg/1 mg lysate) [4]: 2.56 | r (5 h/2.5 h inc. time) [4]: 0.97 | rAVERAGE (2. inc/1. inc) [4]: 0.65 | rAVERAGE (control/1. inc) [4]: 0.00
